Results taken from article PMC12067444, “Synthesis and Pharmacological Characterization of Novel Peripheral Cannabinoid-1 Receptor Blockers Based on a Tricyclic Scaffold” (Journal of Medicinal Chemistry, 2025).

Columns and labels:
[1] = tested on: bacteria strains TA98, TA100; assay: Mini-Ames assay, overall result; assay type: cell-based
Description: (§1) Mini Am es assay. To conduct the assay, top agar was melted with a microwave and maintained at a temper atur e ≥47 °C in a water bath. T he assay was performed using a heat block set to 45 °C ± 2 °C. 12 × 75 mm test tubes were prepared in duplicates. For each concentration, the following components were added sequentially to a test tube:
(§2) […] The mixture was vortexed and then dispensed into w ells using a dispo sable pipette. The plates wer e then incubated at 37±2 °C for approximately 48 to 72 hours.
(§3) BBbbbb BBBBbbbb BBBB = AAAAbbbbbbAAbb nnnnnnbbbbbb bboo bbbbAAbbbbbbbbnnbbbb oobbbb bbbb eeee dd bbbbbb AAbbbbnn gg AAAAbbbbbbAAbb nnnnnnbbbbbb bbBB bbbbAAbbbbbbbbnnbbbb BBbbbb DDDDDDDD nn bbAAbbbbaaAAbb AAbbbbnnaa The mutagenicity of the compound was determined by evaluating the number of revertant colonies in strains TA98 and TA100. A compound was […]
(§4) related and if the fold increase in revertants (F) was equal to or greater than 2 for […]
(§5) background lawn growth on the agar plates. A scoring system ranging from 0 to 4 […]
(§6) complete cytotoxicity, while scores 1, 2, and 3 represented 25%, 50%, and 75% growth, respectively. A score of 4 signified full '100%' growth. The background […]
(§7) background lawn and required magnification for visualization. […]

TA100 = assay: Mini-Ames assay, strain TA100; assay type: cell-based; details: for F value: fold vs DMSO; for Growth of lawn: replicates 1-3
Description: as §1, §2, §3, §4, §5, §6, §7

[2] = Stability in simulated intestinal fluid (SIF); assay type: in vitro ADME
C57BL/6J mice = assay: CB1R agonist (HU210)-induced hypomotility; assay type: in vivo, mouse; details: 1 or 10 mg/kg PO; HU210 30 μg/kg IP; 4 h
Description: The activity profiles of the mice were evaluated using the Promethion High-Definition Behavioral Phenotyping System (Sable Instruments, Inc., Las Vegas, NV, USA). MetaScreen software version 2.2.18.0 was employed for data acquisition and instrument control, while ExpeData version 1.8.4 was used for processing raw data. An analysis script detailing all aspects of the data transformation was utilized. Mice with unrestricted access to food and water were subjected to a standard 12 h light/12 h dark cycle, comprising a 16-h acclimation period followed by 24 h of sampling. Ambulatory activity and position were concurrently quantified by the number of disruptions of the infrared beams in three dimensions (XYZ) with a beam spacing of 0.25 cm.
The objective of this experiment was to evaluate the capability of BNS808 and rimonabant (utilized as a positive control) in inhibiting hypomotility induced by a CB1R agonist (HU210). Male wild-type C57BL/6J mice were administered a single dose of either the vehicle, rimonabant (10 mg/kg, PO), or BNS808 (1 or 10 mg/kg, PO). Thirty minutes following this administration, the mice received a single dose of HU210 (30 μg/kg, IP). The locomotor activity was quantified by assessing the disruptions of infrared beams in two dimensions for 4 h.

mice = assay: Cataleptic behavior (bar test) induced by WIN-55,212; assay type: in vivo, mouse; details: rimonabant 10 mg/kg PO, BNS808 1 mg/kg; 30 min before WIN-55,212 3 mg/kg IP; bar test at 60 min
Description: Catalepsy was assayed using the bar test. Mice were taken out of their home cages, and their forepaws were placed on a horizontal bar measuring 0.5 cm in diameter, positioned 4 cm above the bench surface. Typically, vehicle-treated mice released the bar within 2 s. Cataleptic behavior was defined as the mice remaining motionless, grasping onto the bar, with an arbitrary cutoff of 30 s. The CB1R antagonists, including rimonabant at doses 1 and 10 mg/kg and BNS808 at a dose of 1 mg/kg, were administered 30 min before the IP injection of 3 mg/kg WIN-55,212 (a CB1R agonist). The test was conducted 60 min after the administration of the agonist.

**Q.** Which “toxicity in mini-Ames assay” value ([1]; 31.25 to 1000 μg/well, TA98 and TA100) does the source give for `O=S(=O)(NC1CCCOc2c1nn(-c1ccccc1Cl)c2-c1ccc(Cl)cc1)c1ccc(Cl)cc1` (centres unmarked) [BNS808, 4-chloro-N-[2-(2-chlorophenyl)-3-(4-chlorophenyl)-5,6,7,8-tetrahydrooxepino[3,2-c]pyrazol-8-yl]benzenesulfonamide] here?
**A.** no toxicity

**Q.** What about the “mini-Ames assay (mutagenic effect)” value ([1]; TA98 and TA100, with and without S9) of the same compound?
**A.** nonmutagenic ^b

**Q.** What about the “Number of revertants MEAN” value (TA100; TA100, +S9, 31.25 μg/well) of the same compound?
**A.** 40.67

**Q.** And the solubility (TA100; TA100, +S9, 31.25 μg/well)?
**A.** P0

**Q.** What about the F value (TA100; TA100, +S9, 31.25 μg/well) of the same compound?
**A.** 1.03

**Q.** And the Growth of lawn (TA100; TA100, +S9, 31.25 μg/well)?
**A.** 4 (A score of 4 signified full '100%' growth)

**Q.** What about the “Number of revertants MEAN” value (TA100; TA100, +S9, 62.5 μg/well) of the same compound?
**A.** 34.67

**Q.** What about the solubility (TA100; TA100, +S9, 62.5 μg/well) of the same compound?
**A.** P0

**Q.** What about the F value (TA100; TA100, +S9, 62.5 μg/well) of the same compound?
**A.** 0.87

**Q.** And the Growth of lawn (TA100; TA100, +S9, 62.5 μg/well)?
**A.** 4 (A score of 4 signified full '100%' growth)

**Q.** And the “Number of revertants MEAN” value (TA100; TA100, +S9, 125 μg/well)?
**A.** 30.00

**Q.** And the solubility (TA100; TA100, +S9, 125 μg/well)?
**A.** P0

**Q.** And the F value (TA100; TA100, +S9, 125 μg/well)?
**A.** 0.76

**Q.** What about the Growth of lawn (TA100; TA100, +S9, 125 μg/well) of the same compound?
**A.** 4 (A score of 4 signified full '100%' growth)

**Q.** And the “Number of revertants MEAN” value (TA100; TA100, +S9, 250 μg/well)?
**A.** 29.33

**Q.** And the solubility (TA100; TA100, +S9, 250 μg/well)?
**A.** P1 (0~20% growth of crystals)

**Q.** What about the F value (TA100; TA100, +S9, 250 μg/well) of the same compound?
**A.** 0.74

**Q.** What about the Growth of lawn (TA100; TA100, +S9, 250 μg/well) of the same compound?
**A.** 4 (A score of 4 signified full '100%' growth)

**Q.** And the “Number of revertants MEAN” value (TA100; TA100, +S9, 500 μg/well)?
**A.** 19.33

**Q.** What about the solubility (TA100; TA100, +S9, 500 μg/well) of the same compound?
**A.** P2 (20%~60% growth of crystals)

**Q.** What about the F value (TA100; TA100, +S9, 500 μg/well) of the same compound?
**A.** 0.49

**Q.** And the Growth of lawn (TA100; TA100, +S9, 500 μg/well)?
**A.** 4 (A score of 4 signified full '100%' growth)

**Q.** What about the “Number of revertants MEAN” value (TA100; TA100, +S9, 1000 μg/well) of the same compound?
**A.** 16.67

**Q.** And the solubility (TA100; TA100, +S9, 1000 μg/well)?
**A.** P3 (60%~100% growth of crystals)

**Q.** What about the F value (TA100; TA100, +S9, 1000 μg/well) of the same compound?
**A.** 0.42

**Q.** What about the Growth of lawn (TA100; TA100, +S9, 1000 μg/well) of the same compound?
**A.** 4 (A score of 4 signified full '100%' growth)

**Q.** And the “Number of revertants MEAN” value (TA100; TA100, -S9, 31.25 μg/well)?
**A.** 29.00

**Q.** What about the solubility (TA100; TA100, -S9, 31.25 μg/well) of the same compound?
**A.** P0

**Q.** And the F value (TA100; TA100, -S9, 31.25 μg/well)?
**A.** 0.97

**Q.** And the Growth of lawn (TA100; TA100, -S9, 31.25 μg/well)?
**A.** 4 (A score of 4 signified full '100%' growth)

**Q.** And the “Number of revertants MEAN” value (TA100; TA100, -S9, 62.5 μg/well)?
**A.** 23.67

**Q.** What about the solubility (TA100; TA100, -S9, 62.5 μg/well) of the same compound?
**A.** P0

**Q.** What about the F value (TA100; TA100, -S9, 62.5 μg/well) of the same compound?
**A.** 0.79

**Q.** What about the Growth of lawn (TA100; TA100, -S9, 62.5 μg/well) of the same compound?
**A.** 4 (A score of 4 signified full '100%' growth)

**Q.** And the “Number of revertants MEAN” value (TA100; TA100, -S9, 125 μg/well)?
**A.** 22.67

**Q.** What about the solubility (TA100; TA100, -S9, 125 μg/well) of the same compound?
**A.** P0

**Q.** And the F value (TA100; TA100, -S9, 125 μg/well)?
**A.** 0.76

**Q.** What about the Growth of lawn (TA100; TA100, -S9, 125 μg/well) of the same compound?
**A.** 4 (A score of 4 signified full '100%' growth)

**Q.** What about the “Number of revertants MEAN” value (TA100; TA100, -S9, 250 μg/well) of the same compound?
**A.** 23.00

**Q.** What about the solubility (TA100; TA100, -S9, 250 μg/well) of the same compound?
**A.** P1 (0~20% growth of crystals)

**Q.** What about the F value (TA100; TA100, -S9, 250 μg/well) of the same compound?
**A.** 0.77

**Q.** And the Growth of lawn (TA100; TA100, -S9, 250 μg/well)?
**A.** 4 (A score of 4 signified full '100%' growth)

**Q.** And the “Number of revertants MEAN” value (TA100; TA100, -S9, 500 μg/well)?
**A.** 18.67

**Q.** What about the solubility (TA100; TA100, -S9, 500 μg/well) of the same compound?
**A.** P2 (20%~60% growth of crystals)

**Q.** And the F value (TA100; TA100, -S9, 500 μg/well)?
**A.** 0.62

**Q.** And the Growth of lawn (TA100; TA100, -S9, 500 μg/well)?
**A.** 4 (A score of 4 signified full '100%' growth)

**Q.** And the “amount in SIF with pancreatin” value ([2]; 0 h)?
**A.** 2.972 mg

**Q.** What about the “amount in SIF, no pancreatin” value ([2]; 0 h) of the same compound?
**A.** 3.257 mg

**Q.** What about the “Initial amount (%) in SIF with pancreatin” value ([2]; 1 h) of the same compound?
**A.** 102%

**Q.** What about the “Initial amount (%) in SIF, no pancreatin” value ([2]; 1 h) of the same compound?
**A.** 101%

**Q.** What about the “amount in SIF with pancreatin” value ([2]; 1 h) of the same compound?
**A.** 3.023 mg

**Q.** What about the “amount in SIF, no pancreatin” value ([2]; 1 h) of the same compound?
**A.** 3.277 mg

**Q.** And the “Initial amount (%) in SIF with pancreatin” value ([2]; 3 h)?
**A.** 101%

**Q.** And the “Initial amount (%) in SIF, no pancreatin” value ([2]; 3 h)?
**A.** 100%

**Q.** What about the “amount in SIF with pancreatin” value ([2]; 3 h) of the same compound?
**A.** 3.0009 mg

**Q.** And the “amount in SIF, no pancreatin” value ([2]; 3 h)?
**A.** 3.266 mg

**Q.** What about the “Stability in SIF” value ([2]; with and without pancreatin) of the same compound?
**A.** Stable

**Q.** What about the “antagonism of HU-210-induced hypoactivity” value (C57BL/6J mice) of the same compound?
**A.** unable to antagonize the hypoactivity mediated by HU-210

**Q.** What about the “blockade of WIN-55,212-induced cataleptic behavior” value (mice) of the same compound?
**A.** only rimonabant (10 mg/kg, PO) blocked the cataleptic behavior
